Assay results as given in publication PMC3681751, “Identification of a Novel Antimicrobial Peptide from Human Hepatitis B Virus Core Protein Arginine-Rich Domain (ARD)” (PLoS Pathogens, 2013).
Like-named read-outs stand apart in the source and are kept apart here. Residues, ends and D or L forms follow the SMILES beside them.

Columns and labels:
E. coli (ATCC 25922) = type: cell-based, Escherichia coli; settings: triplicate
Summary of the method: (§1)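 Peptides were incubated with buffer-suspended bacteria (10^6 CFU/ml) for 3 hours at 37°C, then cells were plated overnight to find the MBC.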

[1] = tested on: P. aeruginosa (ATCC 9027); type: cell-based, Pseudomonas aeruginosa
Summary of the method: as §1

[2] = tested on: P. aeruginosa (ATCC 27853); type: cell-based, Pseudomonas aeruginosa
Summary of the method: as §1

P. aeruginosa = assay: SYTOX Green uptake (membrane permeabilization); type: cell-based, Pseudomonas aeruginosa; settings: 0.5, 1 and 2 µM, dose-dependent; triplicates
Experimental: Briefly, bacteria (10^7 CFU) were prepared and mixed with 1 µM SYTOX Green (Invitrogen) for 15 minutes in the dark. […] Melittin (Sigma), the major toxin of bee venom, was used as a positive control to provide maximal permeabilization.

[3] = tested on: K. pneumonia (ATCC 13884); type: cell-based, Klebsiella pneumoniae
Vero cells = assay: Cytotoxicity, MTT assay; type: cell-based, monkey; settings: 1 hour at 37°C; HBc147-183 at 100 µM, melittin at 3.125 µM; triplicates
Experimental: (§2) Cytotoxicity was measured for HepG2, Huh7, HEK293, and Vero cells by MTT assay. Cells were seeded at 10^4 cells/well in a 96-well plate and serial dilutions of peptides were added into each well. PBS was used as a negative control and melittin was used as a positive control. After 1 hour of incubation, the medium were replaced by fresh medium containing 10% MTT solution (Promega), and the plate was incubated for 4 hours in 5% CO2 at 37°C. The absorbance at the wavelength of 595 nm was measured by an ELISA reader (Bio-Rad model 680).

Huh7 cells = assay: Cytotoxicity, MTT assay; type: cell-based, human; settings: 1 hour at 37°C; HBc147-183 at 100 µM, melittin at 3.125 µM; triplicates
Experimental: as §2

HepG2 cells = assay: Cytotoxicity, MTT assay; type: cell-based, human; settings: 1 hour at 37°C; HBc147-183 at 100 µM, melittin at 3.125 µM; triplicates
Experimental: as §2

HEK293 cells = assay: Cytotoxicity, MTT assay; type: cell-based, human; settings: 1 hour at 37°C; HBc147-183 at 100 µM, melittin at 3.125 µM; triplicates
Experimental: as §2

C. albicans (ATCC 10231) = type: cell-based, Candida albicans; settings: fungi, triplicate
Experimental: The antimicrobial activities of HBc ARD peptides were tested using a number of bacterial strains from ATCC, including Pseudomonas aeruginosa Migula strain (ATCC 27853, ampicillin-resistant), Pseudomonas aeruginosa Migula strain (ATCC 9027, ampicillin-resistant), Klebsiella pneumoniae strain (ATCC 17593), Escherichia coli strain (ATCC 25922), Staphylococcus aureus subsp. strain (ATCC 25923, methicillin-resistant), Staphylococcus aureus subsp. strain (ATCC 29213, methicillin-resistant), Staphylococcus aureus subsp. strain (ATCC 19636, methicillinresistant), and Candida albicans strain (ATCC 10231).
All peptides were purchased from Yao-Hong Biotechnology Inc. (Taipei, Taiwan). Vendors provided data of peptide characterizations, including HPLC and Mass (data not shown). Antimicrobial activity was determined as described with some modifications as detailed below. Bacteria were grown overnight in Mueller–Hinton broth (Difco) at 37°C, and during the mid-logarithmic phase, bacteria were diluted to 10^6 CFU (colony formation unit)/ml in phosphate buffer (10 mM sodium phosphate and 50 mM sodium chloride, pH 7.2). Peptides were serially diluted in the same buffer. Fifty microliter (µl) of bacteria was mixed with fifty µl of peptides at varying concentrations followed by incubation at 37°C for 3 hours without shaking. At the end of incubation, bacteria were placed on Mueller-Hinton broth agar plates, and allowed growth at 37°C overnight for measurement of minimal bactericidal concentration (MBC). […] All peptides were tested in triplicate.

S. aureus (ATCC 19636) = type: cell-based, Staphylococcus aureus; settings: methicillin-resistant strain, triplicate
Summary of the method: as §1

S. aureus (ATCC 25923) = type: cell-based, Staphylococcus aureus; settings: methicillin-resistant strain, triplicate
Summary of the method: as §1

S. aureus (ATCC 29213) = type: cell-based, Staphylococcus aureus; settings: methicillin-resistant strain, triplicate
Summary of the method: as §1

[4] = 3 h at 37°C in phosphate buffer pH 7.2
[5] = ampicillin-resistant strain, 3 h at 37°C in phosphate buffer pH 7.2, triplicate
[6] = 3 h at 37°C in phosphate buffer pH 7.2, triplicate
[7] = 3 h at 37°C in 10 mM sodium phosphate, 50 mM NaCl, pH 7.2, 10^6 CFU/ml, ND = not detectable
[8] = ampicillin-resistant strain, 3 h at 37°C in 10 mM sodium phosphate, 50 mM NaCl, pH 7.2, 10^6 CFU/ml, triplicate, ND = not detectable

C[C@@H](O)[C@H](NC(=O)[C@H](CCCNC(=N)N)NC(=O)[C@H](CCCNC(=N)N)NC(=O)[C@H](CCCNC(=N)N)NC(=O)[C@@H]1CCCN1C(=O)[C@H](CO)NC(=O)[C@H](CCCNC(=N)N)NC(=O)CN)C(=O)N1CCC[C@H]1C(=O)N[C@@H](CO)C(=O)N1CCC[C@H]1C(=O)N[C@@H](CCCNC(=N)N)C(=O)N[C@@H](CCCNC(=N)N)C(=O)N[C@@H](CCCNC(=N)N)C(=O)N[C@@H](CCCNC(=N)N)C(=O)N[C@@H](CO)C(=O)N[C@@H](CCC(N)=O)C(=O)N[C@@H](CO)C(=O)N1CCC[C@H]1C(=O)N[C@@H](CCCNC(=N)N)C(=O)N[C@@H](CCCNC(=N)N)C(=O)N[C@@H](CCCNC(=N)N)C(=O)N[C@@H](CCCNC(=N)N)C(=O)N[C@@H](CO)C(=O)O [HBc153-176] (H-GRSPRRRTPSPRRRRSQSPRRRRS-OH; N-terminus and C-terminus assumed)
Antimicrobial activity, MBC (E. coli (ATCC 25922); [4]): 48 µg/mL | Antimicrobial activity, MBC ([1]; ATCC 9027, 3 h, pH 7.2): 1 to 2 µM | Antimicrobial activity, MBC [1, 5]: 3 to 6 µg/mL | MBC against P. aeruginosa ([1]; summary over the P. aeruginosa strains of Table 1 (ATCC 9027, ATCC 27853)): strong activity | Antimicrobial activity, MBC ([2]; ATCC 27853, 3 h, pH 7.2): 1 to 2 µM | Antimicrobial activity, MBC [2, 5]: 3 to 6 µg/mL | Time to membrane permeabilization (SYTOX Green uptake) (P. aeruginosa): ≤ 10 min | Antimicrobial activity, MBC [3, 6]: > 96 µg/mL | Antimicrobial activity, MBC ([3]; ATCC 13884, 3 h, pH 7.2): > 32 µM

CC[C@H](C)[C@H](NC(=O)CN)C(=O)NCC(=O)N[C@@H](C)C(=O)N[C@H](C(=O)N[C@@H](CC(C)C)C(=O)N[C@@H](CCCCN)C(=O)N[C@H](C(=O)N[C@@H](CC(C)C)C(=O)N[C@H](C(=O)N[C@H](C(=O)NCC(=O)N[C@@H](CC(C)C)C(=O)N1CCC[C@H]1C(=O)N[C@@H](C)C(=O)N[C@@H](CC(C)C)C(=O)N[C@H](C(=O)N[C@@H](CO)C(=O)N[C@@H](Cc1c[nH]c2ccccc12)C(=O)N[C@H](C(=O)N[C@@H](CCCCN)C(=O)N[C@@H](CCCNC(=N)N)C(=O)N[C@@H](CCCCN)C(=O)N[C@@H](CCCNC(=N)N)C(=O)N[C@@H](CCC(N)=O)C(=O)N[C@@H](CCC(N)=O)C(N)=O)[C@@H](C)CC)[C@@H](C)CC)[C@@H](C)O)[C@@H](C)O)C(C)C)C(C)C [Melittin, reference compound]
Cell viability / cytotoxicity (MTT) (Vero cells): significantly decreased | Cell viability / cytotoxicity (MTT) (Huh7 cells): significantly decreased | Cell viability / cytotoxicity (MTT) (HepG2 cells): significantly decreased | Cell viability / cytotoxicity (MTT) (HEK293 cells): significantly decreased | Antimicrobial activity, MBC (E. coli (ATCC 25922); [7]): 2 µM | Antimicrobial activity, MBC (E. coli (ATCC 25922); [4]): 5.7 µg/mL | Antimicrobial activity, MBC [1, 8]: 2 µM | Antimicrobial activity, MBC [1, 5]: 5.7 µg/mL | Antimicrobial activity, MBC [2, 8]: 2 µM | Antimicrobial activity, MBC [2, 5]: 5.7 µg/mL | Antimicrobial activity, MBC ([3]; 3 h at 37°C in 10 mM sodium phosphate, 50 mM NaCl, pH 7.2, 10^6 CFU/ml, triplicate, ND = not detectable): 2 µM | Antimicrobial activity, MBC [3, 6]: 5.7 µg/mL | Antimicrobial activity, MBC (C. albicans (ATCC 10231); 3 h at 37°C in 10 mM sodium phosphate, 50 mM NaCl, pH 7.2, ND = not detectable): 4 µM | Antimicrobial activity, MBC (C. albicans (ATCC 10231); [4]): 11.4 µg/mL | Antimicrobial activity, MBC (S. aureus (ATCC 19636); [7]): 1 µM | Antimicrobial activity, MBC (S. aureus (ATCC 19636); [4]): 2.85 µg/mL | Antimicrobial activity, MBC (S. aureus (ATCC 25923); [7]): 2 µM | Antimicrobial activity, MBC (S. aureus (ATCC 25923); [4]): 5.7 µg/mL | Antimicrobial activity, MBC (S. aureus (ATCC 29213); [7]): 1 µM | Antimicrobial activity, MBC (S. aureus (ATCC 29213); [4]): 2.85 µg/mL
